Source: patent US10034931B2, “Use of EGFR pathway inhibitors to increase immune responses to antigens” (Emory University, priority 2013, dated 2018)

Experiments:
[1] = tested on: A/California/07/09 (H1N1) influenza virus; assay: Hemagglutination inhibition (HAI) titers in sera of vaccinated mice; assay type: in vivo, BALB/c mice
[2] = tested on: influenza-specific binding IgG antibodies; assay: Virus-specific (total vaccine-reactive) antibody levels by ELISA; assay type: in vivo, BALB/c mice; settings: between the three groups (EGFRI, vehicle, vaccine only)
[3] = tested on: CCL2; assay: Steady state mRNA levels of immune genes in skin after topical application; assay type: in vivo, Balb/c mice; settings: topical application to dorsal skin, six hour time point
Excerpt: The topical application of the irreversible EGFR inhibitor PD168393 can enhance the elicitation phase of contact hypersensitivity in a manner that is associated with increases in several chemoattractant chemokines. During EGFRI therapy there are changes in immune gene expression even in clinically normal (non-inflamed) skin). To determine how EGFR inhibition alters immune gene expression, PD168393 or vehicle (10% DMSO in ethanol) was applied to the backs of Balb/c mice (5 mice per group) and steady state mRNA levels of several genes were measured. A six hour time point was selected for these experiments. […] This increase was observed independent of the reference housekeeping gene used in the analysis. In contrast, steady state levels of the housekeeping genes and several other genes analyzed were unchanged by topical PD168393 at this time point. These studies indicate that a single application of an EGFRI to mouse skin can alter the expression of chemokines that are known to influence immune cell trafficking into the skin.

[4] = tested on: IFN-γ-producing and IL-4-producing cells; assay: IL-4 and IFN-γ secreting cells (ELISPOT) in skin-draining lymph nodes and spleens; assay type: in vivo, BALB/c mice
[5] = tested on: vaccine-specific IgM-secreting cells and IgG-secreting cells; assay: Vaccine-specific antibody secreting cells (ELISPOT) in skin draining lymph nodes and spleen; assay type: in vivo, BALB/c mice
[6] = tested on: contact hypersensitivity; settings: topical application; associated with increases in several chemoattractant chemokines; cited from earlier work
[7] = tested on: A/California/07/2009 virus; assay: Neutralizing antibody titers by microneutralization assay in sera of vaccinated mice; assay type: in vivo, BALB/c mice; settings: by week 8; vs vehicle-vaccinated and vaccine alone

With `C=CC(=O)Nc1ccc2ncnc(Nc3cccc(Br)c3)c2c1` [PD168393, N-[4-(3-bromoanilino)quinazolin-6-yl]prop-2-enamide] the “HAI titers, difference to vaccine alone or vehicle-vaccine group” value ([1]; as early as week 4) was “two-fold higher”, the “functionally relevant humoral immune responses” value ([1]; single application at site just prior to intradermal vaccination, vs vehicle (10% DMSO in ethanol)-treated mice) was “significantly higher” and the HAI titers ([1]; single topical application at site just prior to intradermal vaccination, vs vehicle-vaccine and vaccine only) was “significantly higher”. The total vaccine-reactive antibodies [2] was “no differences”, the “steady state levels of the housekeeping genes and several other genes” value [3] was “unchanged” and the “steady state mRNA levels of the chemokine CCL2” value ([3]; vs vehicle (10% DMSO in ethanol)) was “statistically significant increase”. The “numbers of activated influenza-specific immune cells as defined by IFN-γ and IL-4 secretion” value ([4]; one week post immunization, vs vehicle-vaccinated mice) was “higher numbers”, the “numbers of IL-4 secreting cells” value ([4]; skin-draining lymph nodes, one week post immunization, vs vehicle-vaccinated mice) was 3 fold and the “numbers of IFN-γ secreting cells” value ([4]; skin-draining lymph nodes, one week post-vaccination, vs vaccine-vehicle cohort) was 4 fold. The “levels of IL-4 secreting lymphocytes” value ([4]; skin-draining lymph nodes, two weeks post immunization, vs vehicle) was “significantly higher”, the “difference in numbers of IFN-γ secreting cells” value ([4]; skin-draining lymph nodes, two weeks post vaccination, vs vaccine-vehicle cohort) was “absent” and the “numbers of IL-4 and IFN-γ secreting cells in spleens” value ([4]; spleens, EGFRI- vs vehicle-vaccinated mice) was “no differences”. For the same compound, the “numbers of IgG-secreting cells” value ([5]; skin draining lymph nodes, 1 and 2 weeks post vaccination, vs vehicle-vaccinated mice) was “significantly higher”, the “number of IgG secreting cells” value ([5]; skin draining lymph nodes, day 14, vs vehicle-vaccinated mice) was “twice as high” and the “number of IgM secreting cells” value ([5]; skin draining lymph nodes, seven days post vaccination, vs vehicle-vaccinated mice) was “double”. For the same compound, the “number of cells producing influenza-specific antibodies” value ([5]; skin-draining lymph nodes, topical treatment prior to vaccination) was “increase”, the “cellular responses in the spleen (antibody secreting cells)” value ([5]; spleen, EGFRI- vs vehicle-vaccinated mice) was “without any notable differences” and the “elicitation phase of contact hypersensitivity” value [6] was “enhance”. For the same compound, the NT titers [7] was “increased relative to both control groups”.
